Source: patent US11618743B2, “Herbicidal compounds” (SYNGENTA PARTICIPATIONS AG, priority 2017, dated 2023)

What was measured:
Experiment in all cases: Post-emergence efficacy, Method A
Format in all cases: in vivo
Setaria faberi (SETFA) = conditions: Application rate 500 g/Ha, evaluated after 13 days; for Control of weed species after post-emergence application, SETFA: 100=total damage to plant, 0=no damage; for Control of weed species SETFA after post-emergence application (100=total damage to plant; 0=no damage to plant): Method A
Procedure: (§1) Seeds of a variety of test species were sown in standard soil in pots. After cultivation for 14 days (post-emergence) under controlled conditions in a glasshouse (at 24/16° C., day/night; 14 hours light; 65% humidity), the plants were sprayed with an aqueous spray solution derived from the dissolution of the technical active ingredient formula (I) in a small amount of acetone and a special solvent and emulsifier mixture referred to as IF50 (11.12% Emulsogen EL360 TM+44.44% N-methylpyrrolidone+44.44% Dowanol DPM glycol ether), to create a 50 g/l solution which was then diluted to required concentration using 0.25% or 1% Empicol ESC70 (Sodium lauryl ether sulphate)+1% ammonium sulphate as diluent.
(§2) The test plants were then grown in a glasshouse under controlled conditions (at 24/16° C., day/night; 14 hours light; 65% humidity) and watered twice daily. After 13 days the test was evaluated (100=total damage to plant; 0=no damage to plant).
(§3) Ipomoea hederacea (IPOHE), Euphorbia heterophylla (EPHHL), Chenopodium album (CHEAL), Amaranthus palmeri (AMAPA), Lolium perenne (LOLPE), Digitaria sanguinalis (DIGSA), Eleusine indica (ELEIN), Echinochloa crus-galli (ECHCG), Setaria faberi (SETFA)

[1] = system: Chenopodium album (CHEAL); conditions: Application rate 500 g/Ha, evaluated after 13 days; for Control of weed species after post-emergence application, CHEAL: 100=total damage to plant, 0=no damage; for Control of weed species CHEAL after post-emergence application (100=total damage to plant; 0=no damage to plant): Method A
Procedure: as §1, §2, §3

[2] = system: Euphorbia heterophylla (EPHHL); conditions: Application rate 500 g/Ha, evaluated after 13 days; for Control of weed species after post-emergence application, EPHHL: 100=total damage to plant, 0=no damage; for Control of weed species EPHHL after post-emergence application (100=total damage to plant; 0=no damage to plant): Method A
Procedure: as §1, §2, §3

[3] = system: Amaranthus palmeri (AMAPA); conditions: Application rate 500 g/Ha, evaluated after 13 days; for Control of weed species after post-emergence application, AMAPA: 100=total damage to plant, 0=no damage; for Control of weed species AMAPA after post-emergence application (100=total damage to plant; 0=no damage to plant): Method A
Procedure: as §1, §2, §3

[4] = system: Digitaria sanguinalis (DIGSA); conditions: Application rate 500 g/Ha, evaluated after 13 days; for Control of weed species after post-emergence application, DIGSA: 100=total damage to plant, 0=no damage; for Control of weed species DIGSA after post-emergence application (100=total damage to plant; 0=no damage to plant): Method A
Procedure: as §1, §2, §3

Eleusine indica (ELEIN) = conditions: Application rate 500 g/Ha, evaluated after 13 days; for Control of weed species after post-emergence application, ELEIN: 100=total damage to plant, 0=no damage; for Control of weed species ELEIN after post-emergence application (100=total damage to plant; 0=no damage to plant): Method A
Procedure: as §1, §2, §3

[5] = system: Echinochloa crus-galli (ECHCG); conditions: Application rate 500 g/Ha, evaluated after 13 days; for Control of weed species after post-emergence application, ECHCG: 100=total damage to plant, 0=no damage; for Control of weed species ECHCG after post-emergence application (100=total damage to plant; 0=no damage to plant): Method A
Procedure: as §1, §2, §3

| SMILES | Control of weed species after post-emergence application, SETFA (Setaria faberi (SETFA)) | Control of weed species after post-emergence application, CHEAL [1] | Control of weed species after post-emergence application, EPHHL [2] | Control of weed species after post-emergence application, AMAPA [3] | Control of weed species after post-emergence application, DIGSA [4] | Control of weed species after post-emergence application, ELEIN (Eleusine indica (ELEIN)) | Control of weed species after post-emergence application, ECHCG [5] | Control of weed species SETFA after post-emergence application (100=total damage to plant; 0=no damage to plant) (Setaria faberi (SETFA)) | Control of weed species CHEAL after post-emergence application (100=total damage to plant; 0=no damage to plant) [1] | Control of weed species EPHHL after post-emergence application (100=total damage to plant; 0=no damage to plant) [2] | Control of weed species AMAPA after post-emergence application (100=total damage to plant; 0=no damage to plant) [3] | Control of weed species DIGSA after post-emergence application (100=total damage to plant; 0=no damage to plant) [4] | Control of weed species ELEIN after post-emergence application (100=total damage to plant; 0=no damage to plant) (Eleusine indica (ELEIN)) | Control of weed species ECHCG after post-emergence application (100=total damage to plant; 0=no damage to plant) [5] |
| --- | --- | --- | --- | --- | --- | --- | --- | --- | --- | --- | --- | --- | --- | --- |
| O=C([O-])C(F)(F)F.OCCC[n+]1ccc(-c2ncccn2)cn1 [Compound A206] | 10 | 90 | 60 | 60 | 20 | 10 | 20 | – | – | – | – | – | – | – |
| O=C(O)CC[n+]1ccc(-c2ccc(C(F)(F)F)nn2)cn1.O=C([O-])C(F)(F)F [Compound A126] | – | – | – | – | – | – | – | 100 | 80 | 100 | 100 | 80 | 90 | 80 |
| COC(=O)C(C)[n+]1ccc(-c2ncccn2)cn1.O=C([O-])C(F)(F)F (centres unmarked) [Compound A192] | 20 | 60 | 40 | 90 | 30 | 30 | 30 | – | – | – | – | – | – | – |
| Nc1cc(-c2cc[n+](CCC(=O)O)nc2)nc(N)n1.O=C([O-])C(F)(F)F [Compound A188] | 30 | 50 | 30 | 90 | 40 | 20 | 50 | – | – | – | – | – | – | – |
| Cc1n[n+](CCC(=O)O)ccc1-c1ncccn1.[Cl-] [Compound A133] | – | – | – | – | – | – | – | 90 | 40 | 20 | 60 | 70 | 90 | 70 |
| Nc1nccc(-c2cc[n+](CCC(=O)O)nc2)n1.O=C([O-])C(F)(F)F [Compound A160] | 90 | 100 | 90 | 100 | 70 | 80 | 70 | – | – | – | – | – | – | – |
| O=C(O)CC[n+]1ccc(-c2cnc(C(F)(F)F)cn2)cn1.O=C([O-])C(F)(F)F [Compound A121] | – | – | – | – | – | – | – | 30 | 80 | 80 | 100 | 40 | 20 | 40 |
| O=C(O)CC[n+]1ccc(-c2ccnc(C(F)(F)F)c2)cn1.O=C([O-])C(F)(F)F [Compound A166] | 40 | 50 | 60 | 30 | 70 | 60 | 50 | – | – | – | – | – | – | – |
| O=C(O)CC[n+]1ccc(-c2cncc(C(F)(F)F)n2)cn1.O=C([O-])C(F)(F)F [Compound A120] | – | – | – | – | – | – | – | 40 | 70 | 50 | 90 | 40 | 30 | 40 |
| O=C(O)CC[n+]1ccc(-c2ncccc2C(F)(F)F)cn1.O=C([O-])C(F)(F)F [Compound A128] | – | – | – | – | – | – | – | 30 | 10 | 0 | 30 | 30 | 50 | 30 |
| Cc1cncc(-c2cc[n+](CCC(=O)O)nc2)n1.O=C([O-])C(F)(F)F [Compound A85] | – | – | – | – | – | – | – | 90 | 90 | 100 | 90 | 90 | 90 | 70 |
| O=C(O)CC[n+]1ccc(-c2ccnc(C(F)(F)F)n2)cn1.O=C([O-])C(F)(F)F [Compound A118] | – | – | – | – | – | – | – | 70 | 80 | 90 | 80 | 90 | 70 | 40 |
| COC(=O)CC[n+]1ccc(-c2ccncc2)cn1.O=C([O-])C(F)(F)F [Compound A203] | 60 | 90 | 50 | 100 | 70 | 60 | 50 | – | – | – | – | – | – | – |
| CC(CC(=O)O)[n+]1ccc(-c2ncccn2)cn1.O=C([O-])C(F)(F)F (centres unmarked) [Compound A40, 3-(4-pyrimidin-2-ylpyridazin-1-ium-1-yl)butanoic acid 2,2,2-trifluoroacetate] | – | – | – | – | – | – | – | 100 | 70 | 90 | 90 | 90 | 90 | 90 |
